Article PMC8438977, “Isolation of bioactive compounds from medicinal plants used in traditional medicine: Rautandiol B, a potential lead compound against Plasmodium falciparum” (BMC Complementary Medicine and Therapies, 2021)
Converted amounts (≈) assume the structure as drawn. Like-named read-outs stand apart in the source and are kept apart here.

Key:
[1] = tested on: Mycobacterium tuberculosis H37Rv (ATCC 27294); assay: Mycobacterium tuberculosis assay (Microplate Alamar Blue Assay, MIC); format: cell-based; conditions: pure compounds and controls, read-out: MTB H37Rv (MIC μM)
[2] = tested on: Plasmodium falciparum TM4/8.2; assay: Antimalaria assay, [3H] hypoxanthine incorporation, TM4/8.2 strain; format: cell-based
Method: (§1) Plasmodium falciparum TM4/8.2 and K1CB1 strains were maintained in RPMI 1640 medium supplemented with 8% human serum, 2.5 mM HEPES and 2 g/L sodium bicarbonate. Parasite cultures were incubated at 37 °C in a 3% CO2 incubator. The crude extracts/pure compounds were tested against TM4/8.2 and K1CB1 P. falciparum in vitro by the modified [^3H] hypoxanthine incorporation assay. Briefly, stock solutions of the crude extracts or pure compounds were prepared in DMSO. Various concentrations of the samples were incubated with malaria parasites with a final volume of 225 μL, 1% parasitemia, 1.5% hematocrit, 0.1% dimethylsulfoxide (DMSO) in 96-well plates. Plates were incubated for 16–18 h. Then, 25 μL [^3H]-hypoxanthine solution was added and incubated for 20 h. The parasites were harvested onto a UniFilter-96 GF/B plate (PerkinElmer, USA). The filters in the plates were air-dried, and then 25 μL of liquid scintillation fluid (Microscint, Packard) was added. The radioactivity was then measured using a microplate scintillation counter (TopCount, Packard). The IC50 values of the crude extracts/ pure compounds were determined.

[3] = tested on: Plasmodium falciparum K1CB1; assay: Antimalaria assay, [3H] hypoxanthine incorporation, K1CB1 strain; format: cell-based; conditions: for IC50: Plasmodium falciparum, read-out: P. f (IC50 μM) K1CB1
Method: as §1

[4] = tested on: T. brucei rhodesiense (STIB-900); assay: Anti-trypanosomal assay (Alamar Blue, 72 h); format: cell-based, Trypanosoma brucei rhodesiense
Method: T. brucei rhodesiense (STIB-900) was maintained in Minimal Essential Medium (MEM) with Earle’s salts supplemented with 3 g/L sodium bicarbonate, 4.5 g/L glucose, 25 mM HEPES, pH 7.3, 0.05 mM bathocuproinedisulfonic acid disodium salt, 1.5 mM L-cysteine, 1 mM hypoxanthine, 0.16 mM thymidine, 1 mM sodium pyruvate, 0.2 mM 2-mercaptoethanol, 1% MEM non-essential amino acid, and 15% heated fetal bovine serum, at 37 °C in a 5% CO2 incubator. To assay anti-Tbr activity, a modified reported protocol was used. Briefly, 2 × 10^4 T. brucei rhodesiense parasites in 175 μL culture media were incubated with 25 μL of varying concentrations of each compound in a 96-well plate under the same culture conditions. Following 72 h incubation, 20 μL Alamar Blue (a resazurin solution) was added in each well. The mixture was further incubated for 3 h. The fluorescence signals were measured by a spectrofluorometer at ex530/em585 nm.

[5] = target: T1, α-glucosidase (AG) (Saccharomyces cerevisiae, UniProt P53341); assay: biochemical; parameters: species or system S. cerevisiae; conditions: for inhibition at 250 µg/mL: samples 250 μg/mL in 50% DMSO, read-out: % Inhibition (AGI activity); for IC50: in 50% DMSO
T1 construct: purchased Sigma
T1 sequence (P53341 whole entry): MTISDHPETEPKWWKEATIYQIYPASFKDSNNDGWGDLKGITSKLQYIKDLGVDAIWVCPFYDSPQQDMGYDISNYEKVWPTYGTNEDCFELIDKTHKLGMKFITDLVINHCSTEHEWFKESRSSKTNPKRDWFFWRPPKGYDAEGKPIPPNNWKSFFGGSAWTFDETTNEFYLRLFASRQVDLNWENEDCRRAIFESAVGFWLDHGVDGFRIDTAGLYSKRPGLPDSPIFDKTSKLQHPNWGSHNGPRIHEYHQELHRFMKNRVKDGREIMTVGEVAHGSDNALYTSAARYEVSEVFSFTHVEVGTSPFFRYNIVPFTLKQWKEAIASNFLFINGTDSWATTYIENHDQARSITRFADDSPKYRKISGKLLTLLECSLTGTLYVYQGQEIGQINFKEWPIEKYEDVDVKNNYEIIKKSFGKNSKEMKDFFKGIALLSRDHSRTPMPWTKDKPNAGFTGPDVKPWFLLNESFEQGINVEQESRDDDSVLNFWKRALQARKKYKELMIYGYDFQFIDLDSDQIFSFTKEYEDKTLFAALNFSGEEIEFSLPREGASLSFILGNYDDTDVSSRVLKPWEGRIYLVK
Method: AGI values of extracts and pure phytochemicals were quantitatively determined in a 96-well plastic plate according to the method described by Nguyen et al.. The enzyme was incubated with the samples dissolved in DMSO for 5 min before adding the substrate. The inhibition was measured spectrophotometrically in 20 mM sodium phosphate buffer pH 6.0 at 37 °C using 3.0 mM p-nitrophenyl α-D-glucopyranoside (Sigma) as the substrate and 0.25 units/mL of AG from S. cerevisiae (Sigma). The absorbance at 405 nm was measured using a microplate reader (BioTek ELx808 microplate reader, USA).

[6] = earlier reports; cited from earlier work
[7] = target: α-amylase (AA); assay: α-amylase inhibitory activity (AAI), starch-iodine assay; format: biochemical; conditions: in 50% DMSO
Method: AAI values were determined using a microplate-based starch–iodine assay. Assay reactions were initiated by adding 40 μL of starch (Sigma S-2630) solution (2.0 g/L) and 40 μL of enzyme in 0.1 M phosphate buffer at pH 7.0 to microplate wells. The enzyme was incubated with the samples for 5 min before adding the substrate. To minimize evaporative loss during incubation, a plastic mat was used to cover the microplate. […] Following color development, the absorbance at 580 nm was measured using a microplate reader (Bio-TEK ELx808 microplate reader, USA).

[8] = tested on: VERO cells; parameters: method as in PMID 32798746; conditions: cited from earlier work
[9] = tested on: BHK21 cells; parameters: method as in PMID 32798746; conditions: cited from earlier work
[10] = pure compounds and controls, strain TM4/8.2, read-out: P. f (IC50 μM) TM4/8.2
[11] = pure compounds and controls, strain K1CB1
[12] = Trypanosoma brucei, RHODESIENSE, 72 h, pure compounds and control; 72 h; read-out: T. br (IC50 μM)
[13] = read-out: P. f (IC50 μM) TM4/8.2
[14] = pure compounds and control; 72 h; read-out: T. br (IC50 μM)
[15] = Trypanosoma brucei, RHODESIENSE; pure compounds and control; 72 h; read-out: T. br (IC50 μM)

SMILES | MIC [1] | IC50 [2, 10] | IC50 [3, 11] | IC50 [4, 12] | inhibition at 250 µg/mL [5] | further results
c1cc2cc3c(cc2o1)OCc1c-3oc2cc3c(cc12)OCO3 [Compound 5, neoduleen] | > 62.1 µM | > 31 µM | > 31 µM | – | – | –
CC(C)=CCc1cc2c(cc1O)OC[C@@H]1c3cc4c(cc3O[C@H]21)OCO4 [Compound 15, (−)-2-isopentenyl-3-hydroxy-8-9-methylenedioxypterocarpan] | > 56.8 µM | > 28.4 µM | > 28.4 µM | 4.87 ± 0.49 µM | 31.5 ± 2.1% | SR (safety ratio), T. brucei rhodesiense ([4]; safety ratio): > 5.83
C=C(C)[C@H]1Cc2c(ccc3c2O[C@@H]2COc4cc(OC)c(OC)cc4[C@@H]2C3=O)O1 [Compound 20, rotenone] | > 52.3 µM | – | – | – | – | IC50 [2, 13]: > 26.2 µM; IC50 ([4]; Trypanosoma brucei, RHODESIENSE, 72 h, read-out: T. br (IC50 μM)): 7.51 ± 0.17 µM; IC50 [3]: > 26.2 µM; cytotoxicity [6]: cytotoxic
COc1cc2c(cc1O)[C@H]1Oc3cc4c(cc3[C@H]1CO2)OCO4 [Compound 19, (−)-2-hydroxypterocarpin] | > 56.8 µM | > 28.4 µM | > 28.4 µM | – | – | melting point: 223 to 225 °C
O=c1c(O)c(-c2ccc(O)cc2)oc2cc(O)cc(O)c12 [Compound 1, kempherol] | > 20 µM | > 50 µM | > 50 µM | 10.3 ± 0.38 µM | – | IC50 [4, 14]: 8.74 ± 0.49 µM; SR (safety ratio), T. brucei rhodesiense ([4]; safety ratio): 3.3
COc1cc2c(cc1C1COc3cc4occc4cc3C1=O)OCO2 (stereo not drawn) [Compound 11, neotenone] | > 62 µM | > 31 µM | > 31 µM | 17 ± 1.83 µM | – | melting point: 174 to 175 °C
CC(C)=CCc1cc2c(cc1O)OC[C@H]1c3cc4c(cc3O[C@@H]21)OCO4 | – | – | – | – | – | SR (safety ratio), T. brucei rhodesiense [4]: > 5.83; IC50 [4, 14]: 4.87 ± 0.49 µM
CO[C@H]1/C=C/O[C@@]2(C)Oc3c(C)c(O)c4c(O)c(c(/C=N/N5CCN(C)CC5)c(O)c4c3C2=O)NC(=O)/C(C)=C\C=C\[C@H](C)[C@H](O)[C@@H](C)[C@@H](O)[C@@H](C)[C@H](OC(C)=O)[C@@H]1C [Rifampin, reference compound] | 0.08 µM (≈ 0.0658 µg/mL) | – | – | – | – | –
O=C1c2cc3ccoc3cc2O[C@@H]2COc3cc4c(cc3[C@H]12)OCO4 [Compound 14, dolineon] | > 59.9 µM | – | – | – | 54.2 ± 8.9% | IC50 [2, 13]: > 29.6 µM; IC50 [4, 15]: 18.7 ± 3.2 µM; IC50 [5]: 660 µM; IC50 [3]: > 29.6 µM
CCc1nc(N)nc(N)c1-c1ccc(Cl)cc1 [Pyrimethamine, reference compound] | – | 0.095 ± 0.02 µM | 23.2 ± 2.24 µM | – | – | –
NNC(=O)c1ccncc1 [Isoniazid, reference compound] | 0.02 µM (≈ 0.00274 µg/mL) | – | – | – | – | –
Oc1cc(O)c2c(c1)O[C@H](c1ccc(O)c(O)c1)[C@@H](O)C2 [Compound 3, (+)-catechin] | > 20 µM | – | > 100 µM | > 100 µM | 97.5 ± 0.6% | IC50 [2, 13]: > 100 µM; IC50 [5]: 360 µM; IC50 [7]: 2260 µM
CC1(C)N=C(N)N=C(N)N1c1ccc(Cl)cc1 [Cycloguanil, reference compound] | – | 0.076 ± 0.016 µM | 10.7 ± 1.62 µM | – | – | –
O=c1c(O)c(-c2ccc(O)c(O)c2)oc2cc(O)cc(O)c12 [Compound 2, quercetin] | > 20 µM | > 50 µM | > 50 µM | 8.44 ± 0.16 µM | – | IC50 [4, 14]: 8.91 ± 0.03 µM; SR (safety ratio), T. brucei rhodesiense ([4]; safety ratio): 4.52
N=C(N)c1ccc(OCCCCCOc2ccc(C(=N)N)cc2)cc1 [Pentamidine, reference compound] | – | – | – | 0.007 ± 4e-05 µM | – | –
c1cc2cc3c(cc2o1)OC[C@H]1c2cc4c(cc2O[C@@H]31)OCO4 [Compound 6, neodulin] | > 64.9 µM | > 32.5 µM | > 32.5 µM | – | – | –
CC(C)(O)C1Cc2cc3c(cc2O1)OC[C@H]1c2ccc(O)cc2O[C@@H]31 (stereo partly drawn) [Compound 24, rautandiol B] | > 20 µM | 0.4 ± 0.07 µM | 0.74 ± 0.29 µM | 23.5 ± 1.59 µM | 29.3 ± 3.1% | melting point: 209 to 213 °C; cytotoxicity on VERO cells [8]: non-cytotoxic; cytotoxicity on BHK21 cells [9]: non-cytotoxic; SR (safety ratio), P. falciparum K1CB1 ([3]; safety ratio): 133
COc1ccc2c(c1)OCC(c1cc3c(cc1OC)OCO3)C2=O (stereo not drawn) [Compound 12, 7-methoxy-3-(6-methoxybenzo [d] [1,3]dioxol-5-yl) chroman-4-one] | – | – | – | – | 17.7 ± 0.3% | melting point: 133 to 135 °C
COc1cc2c(cc1-c1coc3cc4occc4cc3c1=O)OCO2 [Compound 22, dehydroneotenone] | > 61.7 µM | > 30.9 µM | > 30.9 µM | – | – | –
OC[C@H]1O[C@@H](OCCc2ccc(O)cc2)[C@H](O)[C@@H](O)[C@@H]1O [Compound 4, salidroside] | > 20 µM | > 100 µM | > 100 µM | > 100 µM | 47.7 ± 1.8% | IC50 [5]: 1380 µM
CC1(C)Oc2cc3c(cc2CC1O)[C@@H]1Oc2cc(O)ccc2[C@@H]1CO3 (stereo partly drawn) [Compound 23, rautandiol A] | – | – | – | – | 83.9 ± 1% | melting point: 194 to 196 °C; IC50 [5]: 280 µM
O=C1c2cc3ccoc3cc2O[C@]2(O)COc3cc4c(cc3[C@H]12)OCO4 [Compound 13, 12a-hydroxydolineon] | – | – | – | – | – | melting point: 155 to 156 °C
COc1ccc(C2COc3cc4occc4cc3C2=O)c(OC)c1OC (stereo not drawn) [Compound 16, nepseudin] | > 56.4 µM | > 28.2 µM | > 28.2 µM | – | – | –
COc1cc2c(cc1-c1cc3cc4ccoc4cc3oc1=O)OCO2 [Compound 10, pachyrrhizine] | > 64.7 µM | – | – | – | – | IC50 [2, 13]: > 32.3 µM; IC50 [3]: > 32.3 µM
C=C(C)C1Cc2c(ccc3c2O[C@@H]2COc4cc(OC)c(OC)cc4[C@]2(O)C3=O)O1 (stereo partly drawn) [Compound 21, 12a-hydroxyrotenone] | > 55.2 µM | – | – | – | 19.9 ± 11.4% | IC50 [2, 13]: > 27.6 µM; IC50 [4, 15]: 8.63 ± 1.14 µM; IC50 [3]: > 27.6 µM; cytotoxicity [6]: cytotoxic
